Measured values: patent US11096941B2, “Methods of treating circadian rhythm sleep disorders” (Eisai R&D Management Co., Ltd., priority 2016, dated 2021)
Marks after values point to notes of the source that are not given here.

How the values were obtained:
[1] = tested on: male senescence accelerated mouse prone-8 (SAMP8, P8) strain animals; assay: Sleep/wake EEG/EMG recording and wake circadian phase in SAMP8 mice after oral administration; assay type: in vivo; settings: for Wake circadian phase, Phase (ZT): least square mean ± standard error
Source text: (§1) A compound of Formula (I) was finely crushed and suspended in vehicle, a mixture of 0.5% w/v methylcellulose 400 cP in distilled water. Experimental data were collected on male senescence accelerated mouse prone-8 (“SAMP8” or “P8”) strain animals and male senescence accelerated mouse resistant-1 (“SAMR1” or “R1”) strain animals at the age of 21 weeks. P8 mice are known to show accelerated symptoms of aging and also pathological and behavioral symptoms of Alzheimer's disease, while R1 mice are used to represent a normal aging process and are also used as a control strain for P8 mice. See, e.g., Miyamoto, et al., Exp. Geron., 1997, 32, 139-48; Morley et al., Curr. Pharm. Des., 2012, 18, 1123-30.
(§2) Electroencephalogram (“EEG”) and electromyogram (“EMG”) electrodes were implanted on each mouse at 17-18 weeks of age, and the mice were then allowed to recover for at least 18 days in individual recording cages, where they could freely move, under a 12-hour light/12-hour dark cycle. Amplified EEG and EMG signals were digitally recorded for 3 days, separated into individual 24-hour recordings, which were initiated at each lights-on event. During the first 30 minutes of the light cycle (ZT 0-0.5), each mouse received an oral administration of either vehicle or 3 mg/kg of the compound of Formula (I) in vehicle or 30 mg/kg of the compound of Formula (I) in vehicle, after which the sleep/wake behavior of mice was recorded until the next lights on event. Each mouse received every treatment in a cross-over fashion with one treatment per day in the following order: vehicle (10 mL/kg bodyweight), 3 mg/kg, and then 30 mg/kg. Some mice started with vehicle on day 1, some mice started with 3 mg/kg compound of Formula (I) on day 1, and some mice started with 30 mg/kg compound of Formula (I) on day 1.
(§3) EEG frequency and EMG activity signal data were analyzed using software from Kissei Comtec Co., Ltd. to characterize every 10 second epoch as either rapid eye movement (REM) sleep, non-REM sleep, or wakefulness. Then, accumulated wakefulness, non-REM sleep, and REM sleep times over the light cycle (11.5 hours) and the dark cycle (12 hours) were calculated. Additionally, latencies to sleep and REM sleep were calculated as the first appearance of 6 or more epochs of uninterrupted sleep or one or more epochs of REM sleep after the dosing event, respectively. The circadian rhythm parameter phase was determined as the inflection point of a cosine curve fit to the wakefulness distribution in 30 minute bins across the day for every individual mouse using JTK_CYCLE software. Hughes, et al., J. Biol. Rhythms, 2010, 25, 372-80.
(§4) The differences between P8 mice and R1 mice (control mice) were statistically analyzed by comparing sleep/wake behavior and circadian rhythm of the vehicle-treated animals of each strain, while the effect of administration of a compound of Formula (I) on sleep/wake behavior and circadian rhythm was statistically analyzed for each strain as the difference between sleep/wake behavior and circadian rhythm on the vehicle-administration day and sleep/wake behavior and circadian rhythm on a drug-administration day. Statistical analysis of wakefulness time, non-REM sleep time, REM sleep time and latency, and sleep latency was performed with a linear mixed model which specified animal as random effect, and day, strain, treatment and the interaction between strain and treatment as fixed effects with Kenward-Roger as denominator degrees of freedom using SAS software. For estimation of wakefulness phase and its covariance, a linear mixed model was used which assumed heterogeneous variance of strain and treatment combination with Kenward-Roger as denominator and degrees of freedom using SAS software.

[2] = tested on: male senescence accelerated mouse resistant-1 (SAMR1, R1) strain animals; assay: Sleep/wake EEG/EMG recording and wake circadian phase in SAMR1 mice after oral administration; assay type: in vivo
Source text: as §1, §2, §3, §4

[3] = P8 mice, 3 mg/kg oral at ZT 0-0.5
[4] = P8 mice, 30 mg/kg oral at ZT 0-0.5
[5] = P8 mice, 3 and 30 mg/kg oral during ZT 0-0.5, vs vehicle
[6] = P8 mice, 3 and 30 mg/kg oral, vs vehicle (FIG. 2)
[7] = 3 and 30 mg/kg oral during ZT 0-0.5, vs vehicle
[8] = 3 and 30 mg/kg oral, vs vehicle (FIG. 2)

## Cc1ncc(OC[C@@]2(c3cccc(F)c3)C[C@H]2C(=O)Nc2ccc(F)cn2)c(C)n1 [compound of Formula (I), (1R,2S)-2-(((2,4-dimethylpyrimidin-5-yl)oxy)methyl)-2-(3-fluorophenyl)-N-(5-fluoropyridin-2-yl)cyclopropanecarboxamide]
[1]; [3]
  Covariance of Phase: 1.32
  Wake circadian phase, Phase (ZT): 14.00 ± 0.56 ZT
[1]; [4]
  Covariance of Phase: 2.11
  Wake circadian phase, Phase (ZT): 15.41 ± 0.64^b ZT
[1]; P8 mice, 3 and 30 mg/kg oral at beginning of light time, ZT 0.5-12, vs vehicle (FIG. 1A)
  wakefulness time during light time: reduces, in a dose-dependent manner, wakefulness
[1]; [5]
  phase covariance and phase variability (in words): reduction in phase covariance and phase variability
  wake phase shift (in words): dose-dependent and significant delay (right-shift) of the wake phase
[1]; P8 mice, 3 and 30 mg/kg oral in previous light time, ZT 12-24 (FIG. 1A)
  wakefulness time during dark time: dose-dependent increase in wakefulness
[1]; P8 mice, 3 and 30 mg/kg oral in previous light time, ZT 12-24 (FIG. 1B)
  non-REM sleep time during dark time: decreases in non-REM sleep and REM sleep
[1]; P8 mice, 3 and 30 mg/kg oral in previous light time, ZT 12-24 (FIG. 1C)
  REM sleep time during dark time: decreases in non-REM sleep and REM sleep
[1]; P8 mice, 3 and 30 mg/kg oral, ZT 0.5-12, vs vehicle (FIG. 1B)
  non-REM sleep time during light time: increases non-REM sleep
[1]; P8 mice, 3 and 30 mg/kg oral, ZT 0.5-12, vs vehicle (FIG. 1C)
  REM sleep time during light time: dose-dependent increase in the amount of REM sleep
[1]; [6]
  REM sleep latency: dose-dependent reduction of sleep and REM sleep latencies
  sleep latency: dose-dependent reduction of sleep and REM sleep latencies
[1]; treated P8 mice, administration during ZT 0-0.5
  wake phase relative to vehicle-treated R1 mice: correction to the level of vehicle-treated R1 mice
[1]; treated P8 mice, light time
  amounts of wake and non-REM sleep in light time relative to vehicle-treated R1 mice: normalized to the level of vehicle-treated R1 mice
[2]; 3 mg/kg oral at ZT 0-0.5
  Covariance of Phase: 5.18
[2]; 3 mg/kg oral at ZT 0-0.5, least square mean ± standard error
  Wake circadian phase, Phase (ZT): 15.65 ± 0.87 ZT
[2]; 3 mg/kg oral in previous light time, ZT 12-24
  vigilance states (wakefulness, non-REM sleep, REM sleep) during dark time: no effect on each of the vigilance states
[2]; 30 mg/kg oral at ZT 0-0.5
  Covariance of Phase: 0.05
[2]; 30 mg/kg oral at ZT 0-0.5, least square mean ± standard error
  Wake circadian phase, Phase (ZT): 17.02 ± 0.35^a ZT
[2]; 30 mg/kg oral in previous light time, ZT 12-24 (FIG. 1A)
  wakefulness time during dark time: decrease of wakefulness
[2]; 30 mg/kg oral in previous light time, ZT 12-24 (FIG. 1B)
  non-REM sleep time during dark time: increase of non-REM sleep
[2]; 3 and 30 mg/kg oral at beginning of light time, ZT 0.5-12, vs vehicle (FIG. 1A)
  wakefulness time during light time: reduces, in a dose-dependent manner, wakefulness
[2]; [7]
  phase covariance and phase variability (in words): reduction in phase covariance and phase variability
  wake phase shift (in words): dose-dependent significant delay (right-shift) of the wake phase
[2]; 3 and 30 mg/kg oral, ZT 0.5-12, vs vehicle (FIG. 1B)
  non-REM sleep time during light time: increases non-REM sleep
[2]; 3 and 30 mg/kg oral, ZT 0.5-12, vs vehicle (FIG. 1C)
  REM sleep time during light time: dose-dependent increase in the amount of REM sleep
[2]; [8]
  REM sleep latency: dose-dependent reduction of sleep and REM sleep latencies
  sleep latency: dose-dependent reduction of sleep and REM sleep latencies
